# Laboratory results published in patent US20190365675A1, “COMPOSITIONS FOR THE PREVENTION AND/OR TREATMENT OF ALCOHOL USE DISORDERS” (SERVICIO ANDALUZ DE SALUD, priority 2016, published 2019).
# Assays:
# MD2 = MD2 protein expression in frontal cortex after ethanol intoxication; assay type: in vivo, Wistar rats; settings: 2-4 h after last ethanol, OEA pre-treatment
# Procedure: The animals were treated with intragastric (i.g.) ethanol 3 times a day using an i.g. cannula (16G needle, Fisher Scientific, Waltham, Mass., USA), following a protocol based on a slightly modified standard 4-day alcohol intoxication pattern (Bernier et al., 2002a, b) (FIG. 1A). The ethanol doses were administered every 8 h for a total time of 4 days. The rats treated with ethanol received an initial loading dose of 5 g/kg of ethanol in a 30% solution (w/v) and then a maximum maintenance dose of 3 g/kg, which were determined based on blood ethanol levels (BEL). This repeated standard alcohol intoxication paradigm kept BEL intoxication relatively constant in a range of sedation/ataxia (190 to 430 mg/dl, Table 3), according to the 6-point alcohol intoxication behavior scale (Majchrowicz, 1975). The mean dose of ethanol/rat/day (days 1-4) was 7.06 g/kg, similar to other studies (Obernier et al., 2002a, b). OEA (5 mg/kg, i.p., except initial dose of 10 mg/kg i.p.; synthesized as described in Giuffrida et al., 2000) was dissolved in the vehicle (5% Tween-80 in saline solution) and injected 10 minutes before each of the administrations of ethanol by an intragastric gavage. […] The autoradiograph was quantified by densitometry (NIH ImageJ® software, National Biosciences, Lincoln, Nebr. USA) and expressed as optical density (OD). […]
# 4-hydroxynonenal (4-HNE) = assay: Lipid peroxidation (HNE adduct ELISA) in frontal cortex after ethanol intoxication; assay type: in vivo, Wistar rats; settings: significant only in animals treated with ethanol, OEA pre-treatment
# Procedure: The animals were treated with intragastric (i.g.) ethanol 3 times a day using an i.g. cannula (16G needle, Fisher Scientific, Waltham, Mass., USA), following a protocol based on a slightly modified standard 4-day alcohol intoxication pattern (Bernier et al., 2002a, b) (FIG. 1A). The ethanol doses were administered every 8 h for a total time of 4 days. The rats treated with ethanol received an initial loading dose of 5 g/kg of ethanol in a 30% solution (w/v) and then a maximum maintenance dose of 3 g/kg, which were determined based on blood ethanol levels (BEL). This repeated standard alcohol intoxication paradigm kept BEL intoxication relatively constant in a range of sedation/ataxia (190 to 430 mg/dl, Table 3), according to the 6-point alcohol intoxication behavior scale (Majchrowicz, 1975). The mean dose of ethanol/rat/day (days 1-4) was 7.06 g/kg, similar to other studies (Obernier et al., 2002a, b). OEA (5 mg/kg, i.p., except initial dose of 10 mg/kg i.p.; synthesized as described in Giuffrida et al., 2000) was dissolved in the vehicle (5% Tween-80 in saline solution) and injected 10 minutes before each of the administrations of ethanol by an intragastric gavage. […] The levels of HNE protein adducts in cerebral cortex lysates were measured using an OxiSelect™ HNE adduct competitive ELISA 96-well kit (Cell Biolabs®, San Diego, Calif., USA).
smiles,measurement,setting,value
"CCCCCCCC/C=C\CCCCCCCC(=O)NCCO [OEA, oleoylethanolamide]",Ethanol-induced increase in MD2 protein,MD2,inhibited
same,Formation of HNE (lipid peroxidation),4-hydroxynonenal (4-HNE),reduced
